We go through 3 compounds from ChEMBL document CHEMBL1201862, “PubChem BioAssay data set” (2004).

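Grown in 96-well plates, cells were treated for 48 hours with each compound at five concentrations. Insufficient inhibition: endpoint recorded as highest concentration tested. Here, GI50 denotes the concentration required for 50% inhibition of growth.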 Activity calls are given as the source filed them. No stated cut-off is given here; in the data, active = GI50 up to about 1.1 µM and inactive = higher.

Among the test systems are MDA-MB-435; Malme-3M; HL-60; LOX IMVI; 786-0; M14; IGROV-1; HOP-62; OVCAR-5; CAKI-1; SK-OV-3; HT-29; COLO 205; HCT-116; BT-549; T47D; RXF 393; Hs-578T; A498; U-251.
Holding throughout (experiment): NCI anticancer screen, dose series, 48 h

For the compound `O=c1[nH]nc(-c2ccccc2)n1/N=C/c1ccc([N+](=O)[O-])o1`, the GI50 in the test on MDA-MB-435 was 5.2 µM (inactive); with Malme-3M, 4.26 µM (inactive); with HL-60, 8.89 µM (inactive); in the test with LOX IMVI it was 3.34 µM (inactive); in the test with 786-0, 4.88 µM (inactive); in the test with M14 it was 4.14 µM (inactive). Further, the GI50 in the test with IGROV-1 was 2.57 µM (inactive); in the test on HOP-62 it was 6.11 µM (inactive); with OVCAR-5, 10.4 µM (inactive); in the test on CAKI-1, 7.13 µM (inactive); in the test on SK-OV-3, 9.29 µM (inactive); in the test on HT-29, 2.49 µM (inactive). In addition, the GI50 was 4.15 µM (inactive) with COLO 205; 1.37 µM (inactive) in the test on HCT-116; 6 µM (inactive) in the test on BT-549; 13.7 µM (inactive) with T47D; 0.897 µM (active) with RXF 393; 27.2 µM (inactive) in the test on Hs-578T. Also, the GI50 in the test with A498 was 9.12 µM (inactive); with U-251, 6.5 µM (inactive).

In the case of `Cc1ccc([N+](=O)[O-])cc1S(=O)(=O)Nc1ccc(C2=NN(C(=O)c3ccccc3)C(c3ccccc3O)C2)cc1` (stereo not given), the GI50 was 31.2 µM (inactive) with MDA-MB-435; 12.6 µM (inactive) in the test with Malme-3M; 18.6 µM (inactive) in the test with HL-60; 18.3 µM (inactive) in the test on LOX IMVI; 14.4 µM (inactive) in the test on 786-0; 16.3 µM (inactive) in the test on M14. Besides, the GI50 is 10.2 µM (inactive) in the test with IGROV-1; 25.3 µM (inactive) in the test on HOP-62; 19.7 µM (inactive) in the test with OVCAR-5; 17.6 µM (inactive) with CAKI-1; 19.1 µM (inactive) in the test on SK-OV-3; 17.7 µM (inactive) in the test on HT-29. Besides, the GI50 with COLO 205 was 14.3 µM (inactive); in the test with HCT-116 it was 11.4 µM (inactive); in the test on BT-549, 14 µM (inactive); in the test on T47D, 11.8 µM (inactive); with RXF 393, 12.3 µM (inactive); in the test with Hs-578T, 22.8 µM (inactive). Besides, the GI50 was 12.9 µM (inactive) in the test with A498 and 16.5 µM (inactive) in the test on U-251.

In the case of `CC(C)(C)[Si](C)(C)OCc1cccc(OCCOc2cccc(CO[Si](C)(C)C(C)(C)C)c2[N+](=O)[O-])c1[N+](=O)[O-]`, the GI50 in the test with MDA-MB-435, in the test with Malme-3M, in the test with HL-60, with LOX IMVI, in the test on 786-0 and with M14 was > 100 µM (inactive) each time. In addition, the GI50 with IGROV-1, with HOP-62, with OVCAR-5, with CAKI-1, with SK-OV-3 and in the test on HT-29 was > 100 µM (inactive) throughout. Further, the GI50 with COLO 205, in the test with HCT-116, in the test on BT-549, in the test on T47D, with RXF 393 and in the test on Hs-578T was > 100 µM (inactive) each time. Moreover, the GI50 in the test on A498 and in the test with U-251 was > 100 µM (inactive) throughout.
